From patent US10588317B2, “Isoxazoline-substituted benzamides and analogues as insecticides” (priority 2015, dated 2020)

What was measured:
Format in all cases: in vivo
Diabrotica balteata = Diabrotica balteata (corn root worm), sprayed maize sprouts; conditions: 96 h, application rate 200 ppm, L2 larvae, 4 days after infestation, read-out: effect in at least one of the two categories (mortality or growth inhibition)
Summary of the method: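 Read-out at 4 days post-infestation: mortality and growth inhibition relative to untreated samples. Test solutions (200 ppm, from DMSO stocks) were sprayed onto agar-held maize sprouts, which after drying received 6–10 L2 larvae per well.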

Euschistus heros = Euschistus heros (neotropical brown stink bug), sprayed soybean leaves; conditions: 120 h, application rate 200 ppm, N2 nymphs, 5 days after infestation, read-out: effect in at least one of the two categories (mortality or growth inhibition)
Summary of the method: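 Scored 5 days post-infestation versus untreated controls, for both mortality and growth inhibition: N2 nymphs placed on agar-mounted soybean leaves previously sprayed at 200 ppm with aqueous test solutions from DMSO stocks and left to dry.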

Myzus persicae = Myzus persicae (green peach aphid): feeding/contact activity; conditions: 144 h, application rate 200 ppm, aphid population of mixed ages, 6 days after infestation, read-out: mortality
Protocol: Sunflower leaf discs were placed onto agar in a 24-well microtiter plate and sprayed with aqueous test solutions prepared from 10'000 ppm DMSO stock solutions. After drying, the leaf discs were infested with an aphid population of mixed ages. The samples were assessed for mortality 6 days after infestation.

Plutella xylostella = Plutella xylostella (diamond back moth), artificial diet; conditions: 120 h, application rate 200 ppm, L2 larvae, 5 days after infestation, read-out: effect in at least one of the two categories (mortality or growth inhibition)
Summary of the method: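 L2 larvae (10-15 per well) fed on compound-treated, dried artificial diet; test solutions diluted in water from 10'000 ppm DMSO stocks. Readout 5 days post-infestation as mortality or growth inhibition versus untreated diet, with at least 80% effect at 200 ppm as threshold.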

Spodoptera littoralis = Spodoptera littoralis (Egyptian cotton leaf worm), sprayed cotton leaf discs; conditions: foliar, 72 h, application rate 200 ppm, L1 larvae, 3 days after infestation, read-out: control (mortality, anti-feeding effect, growth inhibition)
Summary of the method: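 Five first-instar larvae placed on dried cotton leaf discs (on agar) previously sprayed with aqueous dilutions of 10'000 ppm DMSO stocks. Scored at 3 days against untreated discs for mortality, feeding inhibition and growth inhibition; any category above untreated counts as control.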

Tetranychus urticae = Tetranychus urticae (two-spotted spider mite): feeding/contact activity; conditions: 192 h, application rate 200 ppm, mixed population (mobile stages), 8 days after infestation, read-out: mortality
Protocol: Bean leaf discs on agar in 24-well microtiter plates were sprayed with aqueous test solutions prepared from 10'000 ppm DMSO stock solutions. After drying the leaf discs were infested with a mite population of mixed ages. The samples were assessed for mortality on mixed population (mobile stages) 8 days after infestation.

Thrips tabaci = Thrips tabaci (onion thrips): feeding/contact activity; conditions: 144 h, application rate 200 ppm, Thrips population of mixed ages, 6 days after infestation, read-out: mortality
Protocol: Sunflower leaf discs were placed on agar in 24-well microtiter plates and sprayed with aqueous test solutions prepared from 10'000 ppm DMSO stock solutions. After drying the leaf discs were infested with a Thrips population of mixed ages. The samples were assessed for mortality 6 days after infestation.

COC(=O)N(C)S(=O)(=O)N1CC(NC(=O)c2ccc(C3=NO[C@@](c4cc(Cl)c(F)c(Cl)c4)(C(F)(F)F)C3)cc2C)CO1 (stereo partly drawn) [Compound A77, methyl N-[4-[[4-[(5S)-5-(3,5-dichloro-4-fluoro-phenyl)-5-(trifluoromethyl)-4H-isoxazol-3-yl]-2-methyl-benzoyl]amino]isoxazolidin-2-yl]sulfonyl-N-methyl-carbamate]
≥ 80%: percent effect (mortality or growth inhibition) at 200 ppm (Diabrotica balteata) | percent effect (mortality or growth inhibition) at 200 ppm (Euschistus heros) | mortality at 200 ppm (Myzus persicae) | percent effect (mortality or growth inhibition) at 200 ppm (Plutella xylostella) | mortality at 200 ppm (Spodoptera littoralis) | mortality at 200 ppm (Tetranychus urticae) | mortality at 200 ppm (Thrips tabaci)

Cc1cc(C2=NO[C@@](c3cc(Cl)c(OC(F)F)c(Cl)c3)(C(F)(F)F)C2)ccc1C(=O)N[C@@H]1CON(S(=O)(=O)N(C)C)C1 [Compound A205, 4-[(5S)-5-[3,5-dichloro-4-(difluoromethoxy)phenyl]-5-(trifluoromethyl)-4H-1,2-oxazol-3-yl]-N-[(4S)-2-(dimethylsulfamoyl)-1,2-oxazolidin-4-yl]-2-methylbenzamide]
≥ 80%: percent effect (mortality or growth inhibition) at 200 ppm (Diabrotica balteata) | percent effect (mortality or growth inhibition) at 200 ppm (Euschistus heros) | mortality at 200 ppm (Myzus persicae) | percent effect (mortality or growth inhibition) at 200 ppm (Plutella xylostella) | mortality at 200 ppm (Spodoptera littoralis) | mortality at 200 ppm (Tetranychus urticae) | mortality at 200 ppm (Thrips tabaci)

Cc1cc(C2=NO[C@](c3cc(Cl)c(Cl)c(Cl)c3)(C(F)(F)F)C2)ccc1C(=O)N[C@H]1CON(S(=O)(=O)CCl)C1 [Compound A220, N-[(4R)-2-(chloromethylsulfonyl)-1,2-oxazolidin-4-yl]-2-methyl-4-[(5R)-5-(3,4,5-trichlorophenyl)-5-(trifluoromethyl)-4H-1,2-oxazol-3-yl]benzamide]
≥ 80%: percent effect (mortality or growth inhibition) at 200 ppm (Diabrotica balteata) | percent effect (mortality or growth inhibition) at 200 ppm (Euschistus heros) | mortality at 200 ppm (Myzus persicae) | percent effect (mortality or growth inhibition) at 200 ppm (Plutella xylostella) | mortality at 200 ppm (Spodoptera littoralis) | mortality at 200 ppm (Tetranychus urticae) | mortality at 200 ppm (Thrips tabaci)

Cc1cc(C2=NO[C@@](c3cc(Cl)c(F)c(Cl)c3)(C(F)(F)F)C2)ccc1C(=O)NC1CON(S(=O)(=O)N(C)C(=O)c2ccccc2)C1 (stereo partly drawn) [Compound A80, N-[2-[benzoyl(methyl)sulfamoyl]isoxazolidin-4-yl]-4-[(5S)-5-(3,5-dichloro-4-fluoro-phenyl)-5-(trifluoromethyl)-4H-isoxazol-3-yl]-2-methyl-benzamide]
≥ 80%: percent effect (mortality or growth inhibition) at 200 ppm (Diabrotica balteata) | percent effect (mortality or growth inhibition) at 200 ppm (Euschistus heros) | mortality at 200 ppm (Myzus persicae) | percent effect (mortality or growth inhibition) at 200 ppm (Plutella xylostella) | mortality at 200 ppm (Spodoptera littoralis) | mortality at 200 ppm (Tetranychus urticae) | mortality at 200 ppm (Thrips tabaci)

Cc1cc(C2=NO[C@@](c3cc(Cl)c(C(F)F)c(Cl)c3)(C(F)(F)F)C2)ccc1C(=O)N[C@@H]1CON(S(C)(=O)=O)C1 [Compound A197, 4-[(5S)-5-[3,5-dichloro-4-(difluoromethyl)phenyl]-5-(trifluoromethyl)-4H-1,2-oxazol-3-yl]-2-methyl-N-[(4S)-2-methylsulfonyl-1,2-oxazolidin-4-yl]benzamide]
≥ 80%: percent effect (mortality or growth inhibition) at 200 ppm (Diabrotica balteata) | percent effect (mortality or growth inhibition) at 200 ppm (Euschistus heros) | mortality at 200 ppm (Myzus persicae) | percent effect (mortality or growth inhibition) at 200 ppm (Plutella xylostella) | mortality at 200 ppm (Spodoptera littoralis) | mortality at 200 ppm (Tetranychus urticae) | mortality at 200 ppm (Thrips tabaci)

CNS(=O)(=O)N1C[C@@H](NC(=O)c2ccc(C3=NO[C@](c4cc(Cl)c(C(F)F)c(Cl)c4)(C(F)(F)F)C3)cc2C)CO1 [Compound A206, 4-[(5R)-5-[3,5-dichloro-4-(difluoromethyl)phenyl]-5-(trifluoromethyl)-4H-1,2-oxazol-3-yl]-2-methyl-N-[(4R)-2-(methylsulfamoyl)-1,2-oxazolidin-4-yl]benzamide]
≥ 80%: percent effect (mortality or growth inhibition) at 200 ppm (Diabrotica balteata) | percent effect (mortality or growth inhibition) at 200 ppm (Euschistus heros) | mortality at 200 ppm (Myzus persicae) | percent effect (mortality or growth inhibition) at 200 ppm (Plutella xylostella) | mortality at 200 ppm (Spodoptera littoralis) | mortality at 200 ppm (Tetranychus urticae) | mortality at 200 ppm (Thrips tabaci)

CCS(=O)(=O)N1CC(NC(=O)c2ccc(C3=NO[C@@](c4cc(Cl)c(Cl)c(Cl)c4)(C(F)(F)F)C3)cc2Br)CO1 (stereo partly drawn) [Compound A43, 2-bromo-N-(2-ethylsulfonylisoxazolidin-4-yl)-4-[(5S)-5-(3,4,5-trichlorophenyl)-5-(trifluoromethyl)-4H-isoxazol-3-yl]benzamide]
≥ 80%: percent effect (mortality or growth inhibition) at 200 ppm (Diabrotica balteata) | percent effect (mortality or growth inhibition) at 200 ppm (Euschistus heros) | mortality at 200 ppm (Myzus persicae) | percent effect (mortality or growth inhibition) at 200 ppm (Plutella xylostella) | mortality at 200 ppm (Spodoptera littoralis) | mortality at 200 ppm (Tetranychus urticae) | mortality at 200 ppm (Thrips tabaci)

Cc1cc(C2=NO[C@@](c3cc(Cl)c(OC(F)F)c(Cl)c3)(C(F)(F)F)C2)ccc1C(=O)N[C@@H]1CON(S(C)(=O)=O)C1 [Compound A204, 4-[(5S)-5-[3,5-dichloro-4-(difluoromethoxy)phenyl]-5-(trifluoromethyl)-4H-1,2-oxazol-3-yl]-2-methyl-N-[(4S)-2-methylsulfonyl-1,2-oxazolidin-4-yl]benzamide]
≥ 80%: percent effect (mortality or growth inhibition) at 200 ppm (Diabrotica balteata) | percent effect (mortality or growth inhibition) at 200 ppm (Euschistus heros) | mortality at 200 ppm (Myzus persicae) | percent effect (mortality or growth inhibition) at 200 ppm (Plutella xylostella) | mortality at 200 ppm (Spodoptera littoralis) | mortality at 200 ppm (Tetranychus urticae) | mortality at 200 ppm (Thrips tabaci)

Cc1cc(C2=NO[C@@](c3ccc(F)c(C(F)(F)F)c3)(C(F)(F)F)C2)ccc1C(=O)N[C@H]1CON(S(C)(=O)=O)C1 [Compound A183]
≥ 80%: percent effect (mortality or growth inhibition) at 200 ppm (Diabrotica balteata) | percent effect (mortality or growth inhibition) at 200 ppm (Euschistus heros) | mortality at 200 ppm (Myzus persicae) | percent effect (mortality or growth inhibition) at 200 ppm (Plutella xylostella) | mortality at 200 ppm (Spodoptera littoralis) | mortality at 200 ppm (Tetranychus urticae) | mortality at 200 ppm (Thrips tabaci)

Cc1cc(C2=NO[C@](c3cc(Cl)cc(C(F)F)c3)(C(F)(F)F)C2)ccc1C(=O)N[C@H]1CON(S(C)(=O)=O)C1 [Compound A185]
≥ 80%: percent effect (mortality or growth inhibition) at 200 ppm (Diabrotica balteata) | percent effect (mortality or growth inhibition) at 200 ppm (Euschistus heros) | mortality at 200 ppm (Myzus persicae) | percent effect (mortality or growth inhibition) at 200 ppm (Plutella xylostella) | mortality at 200 ppm (Spodoptera littoralis) | mortality at 200 ppm (Tetranychus urticae) | mortality at 200 ppm (Thrips tabaci)

Cc1cc(C2=NO[C@@](c3cc(Cl)c(F)c(Cl)c3)(C(F)(F)F)C2)ccc1C(=O)NC1CON(S(N)(=O)=O)C1 (stereo partly drawn) [Compound A71]
≥ 80%: percent effect (mortality or growth inhibition) at 200 ppm (Diabrotica balteata) | percent effect (mortality or growth inhibition) at 200 ppm (Euschistus heros) | mortality at 200 ppm (Myzus persicae) | percent effect (mortality or growth inhibition) at 200 ppm (Plutella xylostella) | mortality at 200 ppm (Spodoptera littoralis) | mortality at 200 ppm (Tetranychus urticae) | mortality at 200 ppm (Thrips tabaci)

CC(=O)N(C)S(=O)(=O)N1CC(NC(=O)c2ccc(C3=NO[C@@](c4cc(Cl)c(F)c(Cl)c4)(C(F)(F)F)C3)cc2C)CO1 (stereo partly drawn) [Compound A162]
≥ 80%: percent effect (mortality or growth inhibition) at 200 ppm (Diabrotica balteata) | percent effect (mortality or growth inhibition) at 200 ppm (Euschistus heros) | mortality at 200 ppm (Myzus persicae) | percent effect (mortality or growth inhibition) at 200 ppm (Plutella xylostella) | mortality at 200 ppm (Spodoptera littoralis) | mortality at 200 ppm (Tetranychus urticae) | mortality at 200 ppm (Thrips tabaci)
